Laboratory results reported in ChEMBL document CHEMBL3414508, “A few atoms make the difference: synthetic, CD, NMR and computational studies on antiviral and antibacterial activities of glycopeptide antibiotic aglycon derivatives” (Eur J Med Chem, 2015).
In brackets after ≈: the same amount, converted by molar mass.

Assays:
Type in all cases: functional
[1] = tested on: Staphylococcus epidermidis; assay: Antibacterial activity against biofilm producing Staphylococcus epidermidis ATCC 35984 by broth microdilution method
[2] = tested on: Enterococcus faecalis; assay: Antibacterial activity against Enterococcus faecalis ATCC 29212 by broth microdilution method
[3] = tested on: Staphylococcus aureus; assay: Antibacterial activity against methicillin-resistant Staphylococcus aureus ATCC 33591 by broth microdilution method
[4] = tested on: Enterococcus faecalis; assay: Antibacterial activity against VanB+ Enterococcus faecalis ATCC 51299 by broth microdilution method
[5] = tested on: Staphylococcus epidermidis; assay: Antibacterial activity against Staphylococcus epidermidis expressing mecA by broth microdilution method
[6] = tested on: Bacillus spizizenii; assay: Antibacterial activity against Bacillus subtilis ATCC 6633 by broth microdilution method
[7] = tested on: Staphylococcus aureus; assay: Antibacterial activity against methicillin-sensitive Staphylococcus aureus ATCC 29213 by broth microdilution method
[8] = tested on: Enterococcus faecalis; assay: Antibacterial activity against VanA+ Enterococcus faecalis 15376 by broth microdilution method

Structure (SMILES)	MIC [1]	MIC [2]	MIC [3]	MIC [4]	MIC [5]	MIC [6]	MIC [7]	MIC [8]
COC(=O)[C@H]1NC(=O)[C@H]2NC(=O)[C@H](NC(=O)[C@@H]3NC(=O)[C@H]4NC(=O)[C@@H](Cc5ccc(c(Cl)c5)Oc5cc3cc(c5O)Oc3ccc(cc3Cl)[C@H]2O[C@@H]2O[C@H](CO)[C@@H](O)[C@H](O)[C@H]2NC(C)=O)NC(=O)[C@H](N)c2ccc(O)c(c2)Oc2cc(O)cc4c2)c2ccc(O)c(c2)-c2c(O)cc(O)cc21	0.5 µg/mL (≈ 0.353 µM)	2 µg/mL (≈ 1.41 µM)	1 µg/mL (≈ 0.706 µM)	1 µg/mL (≈ 0.706 µM)	0.5 µg/mL (≈ 0.353 µM)	0.5 µg/mL (≈ 0.353 µM)	0.5 µg/mL (≈ 0.353 µM)	0.5 µg/mL (≈ 0.353 µM)
COC(=O)[C@H]1NC(=O)[C@H]2NC(=O)[C@H](NC(=O)[C@@H]3NC(=O)[C@H]4NC(=O)[C@@H](Cc5ccc(c(Cl)c5)Oc5cc3cc(c5O)Oc3ccc(cc3Cl)[C@H]2O[C@@H]2O[C@H](CO)[C@@H](O)[C@H](O)[C@H]2NC(C)=O)NC(=O)[C@H](Nc2c(OC)c(=O)c2=O)c2ccc(O)c(c2)Oc2cc(O)cc4c2)c2ccc(O)c(c2)-c2c(O)cc(O)cc21	4 µg/mL (≈ 2.62 µM)	2 µg/mL (≈ 1.31 µM)	8 µg/mL (≈ 5.24 µM)	4 µg/mL (≈ 2.62 µM)	8 µg/mL (≈ 5.24 µM)	8 µg/mL (≈ 5.24 µM)	2 µg/mL (≈ 1.31 µM)	0.5 µg/mL (≈ 0.328 µM)
COC(=O)[C@H]1NC(=O)[C@H]2NC(=O)[C@H](NC(=O)[C@@H]3NC(=O)[C@H]4NC(=O)[C@@H](Cc5ccc(c(Cl)c5)Oc5cc3cc(c5O)Oc3ccc(cc3Cl)[C@H]2O[C@@H]2O[C@H](CO)[C@@H](O)[C@H](O)[C@H]2NC(C)=O)NC(=O)[C@H](Nc2c(NCc3ccc(-c5ccccc5)cc3)c(=O)c2=O)c2ccc(O)c(c2)Oc2cc(O)cc4c2)c2ccc(O)c(c2)-c2c(O)cc(O)cc21	0.5 µg/mL (≈ 0.298 µM)	0.5 µg/mL (≈ 0.298 µM)	0.5 µg/mL (≈ 0.298 µM)	0.5 µg/mL (≈ 0.298 µM)	0.5 µg/mL (≈ 0.298 µM)	8 µg/mL (≈ 4.77 µM)	2 µg/mL (≈ 1.19 µM)	0.5 µg/mL (≈ 0.298 µM)
COc1c(N[C@H]2C(=O)N[C@@H]3Cc4ccc(c(Cl)c4)Oc4cc5cc(c4O)Oc4ccc(cc4Cl)[C@@H](O)[C@@H]4NC(=O)[C@H](NC(=O)[C@@H]5NC(=O)[C@@H](NC3=O)c3cc(O)cc(c3)Oc3cc2ccc3O)c2ccc(O)c(c2)-c2c(O)cc(O)cc2[C@@H](C(=O)O)NC4=O)c(=O)c1=O	2 µg/mL (≈ 1.53 µM)	4 µg/mL (≈ 3.06 µM)	2 µg/mL (≈ 1.53 µM)	8 µg/mL (≈ 6.11 µM)	2 µg/mL (≈ 1.53 µM)	16 µg/mL (≈ 12.2 µM)	1 µg/mL (≈ 0.764 µM)	2 µg/mL (≈ 1.53 µM)
O=C1N[C@H]2C(=O)N[C@H]3C(=O)N[C@H](C(=O)N[C@H](C(=O)O)c4cc(O)cc(O)c4-c4cc3ccc4O)[C@H](O)c3ccc(c(Cl)c3)Oc3cc2cc(c3O)Oc2ccc(cc2Cl)C[C@H]2NC(=O)[C@H](Nc3c(NCc4ccc(-c5ccccc5)cc4)c(=O)c3=O)c3ccc(O)c(c3)Oc3cc(O)cc(c3)[C@@H]1NC2=O	0.5 µg/mL (≈ 0.342 µM)	1 µg/mL (≈ 0.685 µM)	2 µg/mL (≈ 1.37 µM)	8 µg/mL (≈ 5.48 µM)	2 µg/mL (≈ 1.37 µM)	8 µg/mL (≈ 5.48 µM)	2 µg/mL (≈ 1.37 µM)	1 µg/mL (≈ 0.685 µM)
COC(=O)[C@H]1NC(=O)[C@H]2NC(=O)[C@H](NC(=O)[C@@H]3NC(=O)[C@H]4NC(=O)[C@@H](Cc5ccc(c(Cl)c5)Oc5cc3cc(c5O)Oc3ccc(cc3Cl)[C@H]2O)NC(=O)[C@H](Nc2c(NCc3ccc(-c5ccccc5)cc3)c(=O)c2=O)c2ccc(O)c(c2)Oc2cc(O)cc4c2)c2ccc(O)c(c2)-c2c(O)cc(O)cc21	256 µg/mL (≈ 174 µM)	64 µg/mL (≈ 43.4 µM)	256 µg/mL (≈ 174 µM)	256 µg/mL (≈ 174 µM)	32 µg/mL (≈ 21.7 µM)	256 µg/mL (≈ 174 µM)	128 µg/mL (≈ 86.8 µM)	128 µg/mL (≈ 86.8 µM)
COC(=O)[C@H]1NC(=O)[C@H]2NC(=O)[C@H](NC(=O)[C@@H]3NC(=O)[C@H]4NC(=O)[C@@H](Cc5ccc(cc5)Oc5cc3cc(c5O)Oc3ccc(cc3)[C@H]2O)NC(=O)[C@H](Nc2c(NCc3ccc(-c5ccccc5)cc3)c(=O)c2=O)c2ccc(O)c(c2)Oc2cc(O)cc4c2)c2ccc(O)c(c2)-c2c(O)cc(O)cc21	32 µg/mL (≈ 22.8 µM)	4 µg/mL (≈ 2.85 µM)	32 µg/mL (≈ 22.8 µM)	4 µg/mL (≈ 2.85 µM)	8 µg/mL (≈ 5.69 µM)	16 µg/mL (≈ 11.4 µM)	8 µg/mL (≈ 5.69 µM)	16 µg/mL (≈ 11.4 µM)
Cc1c(O)cc2cc1Oc1cc(ccc1O)[C@@H](N)C(=O)N[C@H]1C(=O)N[C@@H]2C(=O)N[C@H]2C(=O)N[C@H]3C(=O)N[C@H](C(=O)N[C@@H](C(=O)O)c4cc(O)cc(O[C@H]5O[C@H](CO)[C@@H](O)[C@H](O)[C@@H]5O)c4-c4cc3ccc4O)[C@H](O[C@H]3C[C@@H](N)[C@@H](O)[C@H](C)O3)c3ccc(cc3)Oc3cc2cc(c3O[C@H]2O[C@@H](CO[C@H]3O[C@H](C)[C@@H](O)[C@H](O)[C@@H]3O)[C@H](O)[C@@H](O)[C@@H]2O[C@H]2O[C@H](CO)[C@@H](O)[C@H](O)[C@@H]2O[C@H]2O[C@H](CO)[C@@H](O)[C@@H]2O)Oc2ccc(cc2)[C@H]1O [RISTOCETIN]	2 µg/mL (≈ 0.974 µM)	4 µg/mL (≈ 1.95 µM)	32 µg/mL (≈ 15.6 µM)	256 µg/mL (≈ 125 µM)	128 µg/mL (≈ 62.3 µM)	16 µg/mL (≈ 7.79 µM)	128 µg/mL (≈ 62.3 µM)	16 µg/mL (≈ 7.79 µM)
